Measured values: US10307451B2, “Phytoestrogen product of red clover and pharmaceutical uses thereof” (Sinoveda Canada Inc., priority 2010, dated 2019)
In brackets after ≈: the same amount, converted by molar mass. Like-named read-outs stand apart in the source and are kept apart here.

How the values were obtained:
Caco-2 = conditions: human
plasma protein = assay: Plasma protein binding of absorbable aglycones; assay type: in vitro ADME
Description: (§1) The protocol used by (Moon, Sagawa et al. 2006) was used for measuring plasma protein binding of the absorbable aglycones. Parameters have been used for PBPK simulation. Conjugates of Biochanin A, formononetin, Genistein, Daidzein and Equol are predominant components in plasma. The respective aglycones constitute less than 5% of the total concentration.

[1] = tested on: human intestinal microflora; assay: Biotransformation by human intestinal bacteria (fecal microflora incubation); assay type: in vitro ADME; conditions: for isoflavone left in the incubation media: human, 120 h, 100 µM
Protocol: Fresh human fecal samples were collected from 4 volunteers. Five grams of each were pooled together and mixed well with 30 mL BHI culture medium. The fecal suspension was centrifuged at 200 g for 5 min and supernatant was decanted and centrifuged at 5,000 g for another 30 min. The resultant precipitate was re-suspended with 10 mL BHI medium to produce intestinal micro flora solution.
As the biotransformation of drugs by human intestinal bacteria was determined in a 5 mL incubation system containing 250 μL intestinal microflora solution, 50 μL stock solution in DMSO in BHI medium. […] Zero-minute incubations served as controls. Reactions were stopped by extracting samples with 15 ml of ethanol twice. The two ethanol extractions were combined, dried and re-suspended in 80% methanol for HPLC/MS analysis.

[2] = tested on: human intestinal microsomes; assay: Metabolism of isoflavone mixtures by human intestinal microsomes; assay type: in vitro ADME
Protocol: (§2) Human liver microsomes, intestinal microsomes, and hepatocytes of human female origin were purchased from XenoTech. All chemicals were purchased from Sigma-Aldrich. […] The final DMSO in buffer or media was kept at 0.1%. Protocols supplied by XenoTech Inc., the supplier, were used for glucuronidation with microsomal incubation, and hepatocyte incubation. Samples were analyzed using LC/MS.

Raw264.7 cells = assay: Osteoclast differentiation in Raw264.7 cells (ACP/cell number); assay type: cell-based; conditions: 10 μM total isoflavones, MCSF and RANKL stimulated
Protocol: Effects of isoflavones on the differentiation of osteoblast in MC3T3 cells followed Ge et al., 2006 and osteoclast differentiation in Raw264.7 cells followed Garcia Palacios et al., 2005. Cell numbers were measured with CellTag from Li-Cor Biosciences. Both activities of alkaline and acid phosphatase were measured with a plate reader at 405 nm. Isoflavones were first dissolved in DMSO and stock solutions were prepared at 10 mM and the final concentration of total isoflavones in test solution was 10 μM. Osteoblast and osteoclast differentiations were quantified by measuring activities of alkaline phosphatase (ALP) and acidic phosphatase (ACP). ALP is highly expressed by the mature osteoblasts and ACP is expressed by osteoclasts. Values of integrated intensity of fluorescence from […] staining serve as a correction factor for the difference in cell numbers. Therefore, ALP/cell number and ACP/cell number ratios are used to quantify osteoblast and osteoclast activities. Raw246.7 cells were treated with MCSF and RANKL to stimulate the differentiation of osteoclasts. Isoflavones were added at the final concentration of 10 μM to examine their ability to inhibit differentiation.

[3] = Solubility interactions of isoflavones in fasted simulated intestinal fluid (FaSSIF); assay type: physicochemical; conditions: for Biochanin A saturation concentration: fasted media, 37° C.
Protocol: Isoflavones: daidzein, genistein, formononetin and Biochanin A were obtained from Indofine. Simulated intestinal fluid buffer powder mimicking a fasted state (FaSSIF) was obtained from Biorelevant SIF media, Biorelevant.com, Switzerland.
To prepare accurate concentrations of isoflavones in microtubes, stock solutions of individual isoflavones were prepared at 1 mg/mL in methanol. The amount of isoflavone designated to be held constant was provided at a concentration that well exceeded (about 20×) the saturation concentration for that isoflavone. The appropriate amount of stock was transferred to each microtube and the material was dried down in a vacuum centrifuge.
The competing isoflavone was prepared at 0, 1, 5, 10, 50, 100, 200 μg/mL (FIGS. 11 and 12) and, in the case of formononetin, 400 μg/mL (FIG. 9).
In the case of formononetin competition with Biochanin A, the amount of formononetin was held constant at 50 μg in 1 ml buffer (saturation concentration for formononetin in FaSSIF is about 2 μg/mL). The competing Biochanin A was prepared at 0, 1, 5, 10, 50, 100 and 200 μg/mL (FIG. 10).
Each tube was then reconstituted with 1 mL of FaSSIF buffer, sonicated and allowed to equilibrate with occasional agitation for 24 hours at 37° C. This produced a solution that contained saturated isoflavone concentrations mimicking mammalian intestinal conditions.
At the end of 24 hours each tube containing isoflavones and FaSSIF buffer was briefly centrifuged at 5000 rpm in a microcentrifuge held at 37° C. (2 minutes). A portion of the supernatant (400 μL) was then immediately placed in a centrifugal filter unit (UltraFree-MC-GV […]) and the sample filtered by centrifugation (8000 rpm, 5 minutes, 37° C.). Upon filtration 200 μL filtrate was immediately placed in a microtube and 200 μL methanol added to ensure that the isoflavones remained in solution. The sample was mixed and 200 μL of the mixture was transferred to injection vials provided with 200 μL polypropylene injection inserts.
The samples were analyzed by HPLC with diode array detection at 260 nm using 20 μL injections.

MC3T3 cells = assay: Osteoblast differentiation of MC3T3 cells (ALP/cell number); assay type: cell-based; conditions: 10 μM total isoflavones, 1 week
Protocol: Effects of isoflavones on the differentiation of osteoblast in MC3T3 cells followed Ge et al., 2006 and osteoclast differentiation in Raw264.7 cells followed Garcia Palacios et al., 2005. Cell numbers were measured with CellTag from Li-Cor Biosciences. Both activities of alkaline and acid phosphatase were measured with a plate reader at 405 nm. Isoflavones were first dissolved in DMSO and stock solutions were prepared at 10 mM and the final concentration of total isoflavones in test solution was 10 μM. Osteoblast and osteoclast differentiations were quantified by measuring activities of alkaline phosphatase (ALP) and acidic phosphatase (ACP). ALP is highly expressed by the mature osteoblasts and ACP is expressed by osteoclasts. Values of integrated intensity of fluorescence from […] staining serve as a correction factor for the difference in cell numbers. Therefore, ALP/cell number and ACP/cell number ratios are used to quantify osteoblast and osteoclast activities. Confluence MC3T3 cells were treated with 10 μM of isoflavones for 1 week and then the activity of alkaline phosphatase (ALP) was measured as an indicator of differentiation. […] To examine if there were any synergistic effects, two isoflavones were mixed in a 1:9 ratio and tested in the final concentration of 10 μM. […]

human hepatocytes = assay: Metabolism of isoflavone mixtures by human hepatocytes; assay type: in vitro ADME
Protocol: as §2

[4] = Plasma protein binding of absorbable aglycones; assay type: in vitro ADME
Description: as §1

in vitro = conditions: human, Caco-2
[5] = CaCo-2 permeability of isoflavones in a Red clover extract; conditions: human

SMILES	bio-transformation products formed by intestinal microflora [1]	osteoclast differentiation (Raw264.7 cells)	fraction unbound [4]	metabolism by human intestinal microsomes ([2]; female, human) [ml/min/mg protein]	rate of metabolism by human hepatocytes (human hepatocytes; female, human) [ml/min/million cells]	Papp [5] [×10⁻⁶ cm/s]	further results
COc1ccc(-c2coc3cc(O[C@@H]4O[C@H](CO)[C@@H](O)[C@H](O)[C@H]4O)cc(O)c3c2=O)cc1 [Biochanin A glucoside]	–	–	–	–	–	–	Mean Peff (Caco-2): 0.0164 ×10⁻⁶ cm/s
COc1ccc(-c2coc3cc(O)cc(O)c3c2=O)cc1 [Biochanin A]	dihydrobiochanin A, genistein, and dihydrogenistein	highest inhibition	–	–	–	–	Plasma protein binding (plasma protein): over 97%; metabolism by human intestinal microsomes [2]: 5.41E-4 ml/min/mg protein; Mean Peff (Caco-2): 10.8 ×10⁻⁶ cm/s; Biochanin A saturation concentration ([3]; in the presence of 200 μg/mL daidzein): about 8.7 μg/mL; Biochanin A saturation concentration ([3]; in the presence of 200 μg/mL genistein): about 24.2 μg/mL; Biochanin A saturation concentration ([3]; in the presence of 400 μg/mL formononetin): about 4.5 μg/mL; ALP activity (osteoblast differentiation) (MC3T3 cells): highest ALP activity; rate of metabolism by human hepatocytes (human hepatocytes): 8.88E-6 ml/min/million cells
O=c1c(-c2ccc(O)cc2)coc2cc(O)ccc12 [Daidzein]	–	stimulating osteoclast differentiation	~0.2	6.32E-5	4.07E-6	–	Papp (in vitro): 26.6 ×10⁻⁶ cm/s
O=c1c(-c2ccc(O)cc2)coc2cc(O[C@@H]3O[C@H](CO)[C@@H](O)[C@H](O)[C@H]3O)ccc12 [Daidzin]	–	–	–	–	–	0.536	–
Oc1ccc([C@H]2COc3cc(O)ccc3C2)cc1 [Equol]	most resistant to bio-transformation	–	< 0.03	1.07E-4	1.21E-5	–	isoflavone left in the incubation media [1]: over 60%
COc1ccc(-c2coc3cc(O)ccc3c2=O)cc1 [Formononetin]	dihydroformononetin, dihydrodaidzein, daidzein, and equol	–	< 0.03	7.31E-5	3.45E-6	22	isoflavone left in the incubation media [1]: over 20%; solubility thermodynamic at 24 h ([3]; 37 °C, fassif, thermodynamic from solid): ~2 µg/mL (≈ 7.46 µM)
O=c1c(-c2ccc(O)cc2)coc2cc(O)cc(O)c12 [Genistein]	–	stimulating osteoclast differentiation	< 0.03	–	–	27.5	bio-transformation products formed by intestinal microflora ([1]; 100 μM, anaerobic, 37° C., up to 120 h): dihydrogenistein; metabolism by human intestinal microsomes ([2]; isoflavone mixtures, glucuronidation, female origin): 4.28E-4 ml/min/mg protein; rate of metabolism by human hepatocytes (human hepatocytes; isoflavone mixtures, female origin): 5.14E-6 ml/min/million cells
O=c1c(-c2ccc(O)cc2)coc2cc(O[C@@H]3O[C@H](CO)[C@@H](O)[C@H](O)[C@H]3O)cc(O)c12 [Genistin]	–	–	–	–	–	0.346	–
COc1ccc(-c2coc3cc(O[C@@H]4O[C@H](CO)[C@@H](O)[C@H](O)[C@H]4O)ccc3c2=O)cc1 [Ononin]	–	–	–	–	–	0.122	–
